According to ChEMBL document CHEMBL1136678, “Novel indole-based inhibitors of IMPDH: introduction of hydrogen bond acceptors at indole C-3” (Bioorg Med Chem Lett, 2003):

How the values were obtained:
[1] = target: Inosine-5'-monophosphate dehydrogenase 2 (Homo sapiens, UniProt P12268); assay: Inhibition of 5'-inosine monophosphate dehydrogenase type II (IMPDH II)
CCRF-CEM = assay: Inhibition of CEM T-cell proliferation; assay type: functional, cell-based; conditions: Homo sapiens
[2] = target: Inosine-5'-monophosphate dehydrogenase 1 (Homo sapiens, UniProt P20839); assay: Inhibition of 5'-inosine monophosphate dehydrogenase type I (IMPDH I)
Sequence of Inosine-5'-monophosphate dehydrogenase 1 (P20839 whole entry): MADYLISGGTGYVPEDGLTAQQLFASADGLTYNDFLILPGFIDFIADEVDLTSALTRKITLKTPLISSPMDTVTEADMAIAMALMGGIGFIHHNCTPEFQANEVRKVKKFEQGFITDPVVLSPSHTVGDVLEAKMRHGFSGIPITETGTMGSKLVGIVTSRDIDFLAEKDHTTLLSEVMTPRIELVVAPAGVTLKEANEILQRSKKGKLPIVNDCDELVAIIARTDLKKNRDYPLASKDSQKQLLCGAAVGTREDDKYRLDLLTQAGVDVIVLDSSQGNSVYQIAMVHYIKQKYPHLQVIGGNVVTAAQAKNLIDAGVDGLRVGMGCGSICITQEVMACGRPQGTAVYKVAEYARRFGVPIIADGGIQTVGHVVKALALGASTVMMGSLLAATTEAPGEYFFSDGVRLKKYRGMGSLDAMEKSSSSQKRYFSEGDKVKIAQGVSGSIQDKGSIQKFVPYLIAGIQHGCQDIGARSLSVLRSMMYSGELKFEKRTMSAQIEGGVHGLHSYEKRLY

SMILES	IC50 [1] [nM]	IC50 (CCRF-CEM) [nM]	IC50 [2] [nM]
COc1cc2[nH]c(Cc3ccccc3)cc2cc1-c1cnco1	600		
COc1cc2[nH]c(-c3csc4ccccc34)cc2cc1-c1cnco1	500		
COc1cc2[nH]c(Cc3ccccc3)c(C#N)c2cc1-c1cnco1	220		
COc1cc2[nH]c(Cc3ccccc3)c(C=O)c2cc1-c1cnco1	360		
COc1cc2[nH]c(-c3ccccc3)c(C#N)c2cc1-c1cnco1	130		
COc1cc2[nH]c3c(c2cc1-c1cnco1)CCCC(=O)C3	150		

Next, values leading:

IC50 [1] [nM]	IC50 (CCRF-CEM) [nM]	IC50 [2] [nM]	SMILES
290			COc1cc2[nH]c3c(c2cc1-c1cnco1)CC(=O)CC3
> 1000			CCOC(=O)c1c(-c2ccccc2)[nH]c2cc(OC)c(-c3cnco3)cc12
230			COc1cc2[nH]c(-c3ccccc3)c(C=O)c2cc1-c1cnco1
500	> 10000		COc1cc2[nH]c(-c3ccccc3)cc2cc1-c1cnco1
64			COc1cc2[nH]c(-c3csc4ccccc34)c(C#N)c2cc1-c1cnco1
30	550	160	COc1cc2[nH]c(-c3csc4ccccc34)c(C=O)c2cc1-c1cnco1
